In paper PMC5514153, “Targeting PTPRZ inhibits stem cell-like properties and tumorigenicity in glioblastoma cells” (Scientific Reports, 2017):
Like-named read-outs stand apart in the source and are kept apart here.

Legend:
[1] = Plasma and brain levels after intraperitoneal injection; type: in vivo, C57BL6 mice; conditions: for concentration at 1 h: mouse, ip, C57BL6 mice, 1 h after i.p. 30 mg/kg, two female mice
From the text: NAZ2329 successfully suppresses the cell proliferation and cell migration of the differentiated glioblastoma cells, as well as cell sphere formation (Figs 7 to 8). NAZ2329 is the first cell-permeable R5 RPTP inhibitor. […] Nevertheless, NAZ2329 is a potentially valuable lead therapeutic for the development of drugs that function through allosteric inhibitory mechanisms against PTPs, such as PTPRZ and PTPRG.

hPTPN1 = target: T1, hPTPN1 (Homo sapiens, UniProt P18031); assay: In vitro PTPase assay (DiFMUP), PTPN1; type: biochemical; conditions: 60-min preincubation
T1 construct: the catalytic domains of PTPN1 and PTPN6 were expressed as glutathione-S-transferase (GST) fusion proteins; GST (N); made in house; host or cells: Escherichia coli BL21
T1 sequence (P18031 3-277 limits assumed): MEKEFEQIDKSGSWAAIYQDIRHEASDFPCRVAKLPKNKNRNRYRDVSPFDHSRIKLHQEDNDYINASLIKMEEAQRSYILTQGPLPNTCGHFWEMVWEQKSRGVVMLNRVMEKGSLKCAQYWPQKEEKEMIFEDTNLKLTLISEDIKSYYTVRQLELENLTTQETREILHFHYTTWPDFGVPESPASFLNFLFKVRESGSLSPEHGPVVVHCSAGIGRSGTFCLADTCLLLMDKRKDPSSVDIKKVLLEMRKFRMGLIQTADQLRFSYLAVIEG
Protocol: Figure 4 NAZ2329, an allosteric inhibitor of R5 RPTP subfamily members. (A) Structure of NAZ2329. (B) Effect of preincubation of NAZ2329 on its inhibitory activity against PTPRZ. Recombinant human PTPRZ1 enzyme (the whole intracellular region) was premixed with NAZ2329 for the indicated times and followed by addition of a fluorogenic DiFMUP (non-specific PTP substrate, 6,8-difluoro-4-methylumbiliferyl phosphate) to measure PTP inhibitory activity. (C) Time dependence. The PTPRZ1 enzyme was added to the inhibitor–substrate mixture, and the inhibitory activity was determined at each time point relative to the vehicle control. (D) Reversibility of inhibition. […] The mixture was then 20-fold diluted, and recovered PTP activity was expressed as the relative activity compared with the vehicle-treated enzyme. […] PTPRZ1 enzymes were preincubated with NAZ2329 for 60 min, and the PTP activity was measured using DiFMUP. […]
Recombinant proteins corresponding to the entire intracellular regions (ICRs) of PTPRZ1, PTPRA, and PTPRM were expressed using a baculovirus-silkworm expression system, and purified as described. The ICRs of PTPRG, PTPRS, and PTPRB and the catalytic domains of PTPN1 and PTPN6 were expressed as glutathione-S-transferase (GST) fusion proteins from each pGEX plasmid in Escherichia coli strain BL21 (ref. [6]). […]

In the case of `CCOc1ccc(C(F)(F)F)cc1CSc1ccsc1C(=O)NS(=O)(=O)c1ccccc1` [NAZ2329], the BBB permeability ([1]; from plasma and brain levels 1 h after i.p. 30 mg/kg) is reported as “poor BBB permeability”, the concentration at 1 h ([1]; brain, read-out: average level in brain) is reported as 300 ng/g and the concentration at 1 h ([1]; plasma, read-out: average level in plasma) is reported as 22000 ng/mL. It also gave an IC50 (hPTPN1) of 14.5 µM.
